Laboratory results published in patent publication US8362000B2, “Azetidinyl diamides as monoacylglycerol lipase inhibitors” (Janssen Pharmaceutica NV, priority 2009, dated 2013).
Substitutions are numbered along the chain they refer to. Like-named read-outs stand apart in the source and are kept apart here.

How the values were obtained:
mutant MGL = molecular target: T1, mutant MGL (Homo sapiens, UniProt Q99685, L169S/L176S); assay: MGL ThermoFluor assay - mutant; format: binding
T1 sequence (Q99685 1-303 L169S/L176S): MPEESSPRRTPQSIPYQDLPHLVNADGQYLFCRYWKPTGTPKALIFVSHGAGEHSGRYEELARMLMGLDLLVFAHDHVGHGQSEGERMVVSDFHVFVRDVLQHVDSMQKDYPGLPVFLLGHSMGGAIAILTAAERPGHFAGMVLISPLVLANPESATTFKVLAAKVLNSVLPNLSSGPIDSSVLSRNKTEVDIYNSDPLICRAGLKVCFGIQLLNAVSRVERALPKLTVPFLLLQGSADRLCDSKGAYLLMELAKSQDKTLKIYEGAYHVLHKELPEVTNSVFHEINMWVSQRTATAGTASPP

[1] = molecular target: T2, purified wild type MGL (wt-MGLL 6H-11-313) (Homo sapiens, UniProt Q99685)
T2 sequence (Q99685 1-303): T1 sequence (Q99685 1-303 L169S/L176S) with S169L, S176L

[2] = ThermoFluor, compound concentration measured by qNMR, read-out: MGL mutant ThermoFluor qKd (using qNMR conc.)
[3] = ThermoFluor thermal stability binding assay, read-out: MGL mutant ThermoFluor Kd
[4] = compound concentration measured by qNMR, read-out: MGL mutant ThermoFluor qKd (using qNMR conc.)
[5] = ThermoFluor concentration-response, read-out: MGL mutant ThermoFluor Kd

Row | Compound | Kd (mutant MGL; [2]) | IC50 [1] | Kd (mutant MGL; [3]) | Kd (mutant MGL; [4]) | Kd (mutant MGL; [5])
1 | C[C@@H]1CN(C2CN(C(=O)c3cc4ccc(C(F)(F)F)cc4s3)C2)C[C@H](C)N1C(=O)c1nccs1 [Cpd 954, (2R,6S)-2,6-Dimethyl-1-(1,3-thiazol-2-ylcarbonyl)-4-(1-{[6-(trifluoromethyl)-1-benzothiophen-2-yl]carbonyl}azetidin-3-yl)piperazine] | 3440 nM | 2740 nM |  |  | 
2 | O=C(c1ccc(OCc2cccc(Cl)c2)cc1)N1CC(N2CCN(C(=O)c3nccs3)CC2)C1 [Cpd 957] |  | < 5 nM | 8 nM |  | 
3 | O=C(c1ccc(CNc2cccc(Cl)c2)cc1)N1CC(N2CCN(C(=O)C(F)(F)F)CC2)C1 [Cpd 964] |  | 1700 nM |  | 3200 nM | 
4 | O=C(c1ccc(OCc2ccc3ccccc3n2)cc1)N1CC(N2CCN(C(=O)c3nccs3)CC2)C1 [Cpd 967] |  | 9 nM | 44 nM |  | 
5 | O=C(c1ccc(SCc2cccc(C(F)(F)F)c2)cc1)N1CC(N2CCN(C(=O)C(F)(F)F)CC2)C1 [Cpd 974] |  | 177 nM |  | 1780 nM | 
6 | O=C(c1ccc(CS(=O)(=O)c2cccc(C(F)(F)F)c2)cc1)N1CC(N2CCN(C(=O)c3nccs3)CC2)C1 [Cpd 976, 1-(1,3-Thiazol-2-ylcarbonyl)-4-(1-{[4-({[3-(trifluoromethyl)phenyl]sulfonyl}methyl)phenyl]carbonyl}azetidin-3-yl)piperazine] |  | 574 nM |  |  | 1840 nM
7 | O=C(c1ccc(OCc2cncc(Cl)c2)cc1)N1CC(N2CCN(C(=O)C(F)(F)F)CC2)C1 [Cpd 979] |  | 648 nM |  | 1140 nM | 
8 | O=C(c1nccs1)N1CCN(C2CN(C(=O)c3cccc4[nH]c(Cc5ccccc5)nc34)C2)CC1 [Cpd 980] |  | 6790 nM | 5000 nM |  | 
9 | O=C(c1ccc2c(c1)C(Cc1cccc(C(F)(F)F)c1)(Cc1cccc(C(F)(F)F)c1)C(=O)N2)N1CC(N2CCN(C(=O)c3nccs3)CC2)C1 [Cpd 992] |  | 7760 nM |  |  | 561 nM
10 | O=C(c1nccs1)N1CCN(C2CN(C(=O)c3cn(Cc4ccccc4)c4ccccc34)C2)CC1 [Cpd 993] |  | 1510 nM |  |  | 333 nM
11 | O=C(c1ccc2c(c1)CCN2Cc1ccccc1)N1CC(N2CCN(C(=O)c3nccs3)CC2)C1 [Cpd 994, 1-Benzyl-5-({3-[4-(1,3-thiazol-2-ylcarbonyl)piperazin-1-yl]azetidin-1-yl}carbonyl)-2,3-dihydro-1H-indole] |  | 13 nM |  |  | 2 nM
12 | O=C(c1ccc(Cc2cccc(C(F)(F)F)c2)cc1)N1CC(N2CCN(C(=O)c3nccs3)CC2)C1 [Cpd 995] |  | < 5 nM |  |  | 2 nM
13 | O=C(c1cccc(CNc2ccccc2F)c1)N1CC(N2CCN(C(=O)c3nccs3)CC2)C1 [Cpd 1005] |  | 237 nM |  |  | 83 nM
14 | Cc1c(Cc2ccc(C(F)(F)F)cc2)cccc1C(=O)N1CC(N2CCN(C(=O)c3nccs3)CC2)C1 [Cpd 1008] |  | < 5 nM |  |  | 89 nM
15 | Cc1c(Cc2ccc(C(F)(F)F)cc2)cccc1C(=O)N1CC(N2CCN(C(=O)c3ccc[nH]3)CC2)C1 [Cpd 1013] |  | 161 nM |  |  | 760 nM
16 | Cc1c(Cc2ccc(C(F)(F)F)cc2)cccc1C(=O)N1CC(N2CCN(C(=O)c3ccns3)CC2)C1 [Cpd 1014] |  | 257 nM |  |  | 903 nM
17 | Cc1c(Cc2ccc(C(F)(F)F)cc2)cccc1C(=O)N1CC(N2CCN(C(=O)c3cncs3)CC2)C1 [Cpd 1015] |  | 777 nM |  |  | 1180 nM
18 | O=C(c1nccs1)N1CCN(C2CN(C(=O)c3nn(-c4ccc(Cl)cc4Cl)c4c3CCC/C4=C\c3ccc(Cl)cc3)C2)CC1 [Cpd 1018] |  | 101 nM |  |  | 207 nM
19 | Cn1cc(Cc2ccc(F)cc2)c2ccc(C(=O)N3CC(N4CCN(C(=O)c5nccs5)CC4)C3)cc21 [Cpd 1026] |  | 16 nM |  | 1 nM | 
20 | O=C(c1ccc2c(cnn2Cc2ccc(F)cc2)c1)N1CC(N2CCN(C(=O)c3nccs3)CC2)C1 [Cpd 1029, 1-(4-Fluorobenzyl)-5-({3-[4-(1,3-thiazol-2-ylcarbonyl)piperazin-1-yl]azetidin-1-yl}carbonyl)-1H-indazole] |  | < 5 nM |  | 6 nM | 

Row | Compound | Kd (mutant MGL; [2]) | IC50 [1] | Kd (mutant MGL; [3]) | Kd (mutant MGL; [4]) | Kd (mutant MGL; [5])
21 | O=C(c1ccc2nn(Cc3ccc(F)cc3)cc2c1)N1CC(N2CCN(C(=O)c3nccs3)CC2)C1 [Cpd 1030, 2-(4-Fluorobenzyl)-5-({3-[4-(1,3-thiazol-2-ylcarbonyl)piperazin-1-yl]azetidin-1-yl}carbonyl)-2H-indazole] |  | 13 nM |  | 33 nM | 
22 | CN(C(=O)Cn1ccc2cc(C(=O)N3CC(N4CCN(C(=O)c5nccs5)CC4)C3)ccc21)c1ccccc1 [Cpd 1031] |  | 111 nM |  | 134 nM | 
23 | CN(C(=O)Cn1ccc2cc(C(=O)N3CC(N4CCN(C(=O)c5cscn5)CC4)C3)ccc21)c1ccccc1 [Cpd 1032] |  | 3020 nM |  | 1100 nM | 
24 | O=C(Cn1ccc2cc(C(=O)N3CC(N4CCN(C(=O)c5nccs5)CC4)C3)ccc21)N1CCCC1 [Cpd 1035] |  | 4620 nM |  | 1010 nM | 
25 | O=C(c1ccc2c(cnn2Cc2ccc(C(F)(F)F)cc2)c1)N1CC(N2CCN(C(=O)c3nccs3)CC2)C1 [Cpd 1036, 5-({3-[4-(1,3-Thiazol-2-ylcarbonyl)piperazin-1-yl]azetidin-1-yl}carbonyl)-1-[4-(trifluoromethyl)benzyl]-1H-indazole] |  | < 5 nM |  | 5 nM | 
26 | O=C(c1ccc2nn(Cc3ccc(C(F)(F)F)cc3)cc2c1)N1CC(N2CCN(C(=O)c3nccs3)CC2)C1 [Cpd 1037, 5-({3-[4-(1,3-Thiazol-2-ylcarbonyl)piperazin-1-yl]azetidin-1-yl}carbonyl)-2-[4-(trifluoromethyl)benzyl]-2H-indazole] |  | 5 nM |  | 22 nM | 
27 | O=C(c1ccc2c(cnn2Cc2cccc(C(F)(F)F)c2)c1)N1CC(N2CCN(C(=O)c3nccs3)CC2)C1 [Cpd 1038, 5-({3-[4-(1,3-Thiazol-2-ylcarbonyl)piperazin-1-yl]azetidin-1-yl}carbonyl)-1-[3-(trifluoromethyl)benzyl]-1H-indazole] |  | < 5 nM |  | 2 nM | 
28 | O=C(c1ccc2nn(Cc3cccc(C(F)(F)F)c3)cc2c1)N1CC(N2CCN(C(=O)c3nccs3)CC2)C1 [Cpd 1039, 5-({3-[4-(1,3-Thiazol-2-ylcarbonyl)piperazin-1-yl]azetidin-1-yl}carbonyl)-2-[3-(trifluoromethyl)benzyl]-2H-indazole] |  | 5 nM |  | 7 nM | 
29 | CC(c1ccccc1)n1cc2cc(C(=O)N3CC(N4CCN(C(=O)c5nccs5)CC4)C3)ccc2n1 (stereo not drawn) [Cpd 1040, 2-(1-Phenylethyl)-5-({3-[4-(1,3-thiazol-2-ylcarbonyl)piperazin-1-yl]azetidin-1-yl}carbonyl)-2H-indazole] |  | 25 nM |  | 14 nM | 
30 | O=C(COc1ccc(C(=O)N2CC(N3CCN(C(=O)c4nccs4)CC3)C2)cc1)Nc1cccc(C(F)(F)F)c1 [Cpd 1041] | 397 nM | 19 nM |  |  | 
31 | Cc1cc(C(=O)N2CC(N3CCN(C(=O)c4nccs4)CC3)C2)c(C)n1Cc1ccc(S(N)(=O)=O)cc1 [Cpd 1042] | 5000 nM | 5270 nM |  |  | 
32 | O=C(c1cnc2c(ccn2Cc2ccc(F)cc2)c1)N1CC(N2CCN(C(=O)c3nccs3)CC2)C1 [Cpd 1043, 1-(4-Fluorobenzyl)-5-({3-[4-(1,3-thiazol-2-ylcarbonyl)piperazin-1-yl]azetidin-1-yl}carbonyl)-1H-pyrrolo[2,3-b]pyridine] |  | 16 nM |  | 55 nM | 
33 | NC(=O)c1ccc(Cn2ncc3cc(C(=O)N4CC(N5CCN(C(=O)c6nccs6)CC5)C4)ccc32)cc1 [Cpd 1044, 4-{[5-({3-[4-(1,3-Thiazol-2-ylcarbonyl)piperazin-1-yl]azetidin-1-yl]carbonyl)-1H-indazol-1-yl}methyl}benzamide] |  | 718 nM |  | 945 nM | 
34 | N#Cc1ccc(Cn2ncc3cc(C(=O)N4CC(N5CCN(C(=O)c6nccs6)CC5)C4)ccc32)cc1 [Cpd 1045, 4-{[5-({3-[4-(1,3-Thiazol-2-ylcarbonyl)piperazin-1-yl]azetidin-1-yl]carbonyl)-1H-indazol-1-yl}methyl}benzonitrile] |  | 21 nM |  | 190 nM | 
35 | O=C(c1ccc2c(ccn2Cc2ccncc2)c1)N1CC(N2CCN(C(=O)c3nccs3)CC2)C1 [Cpd 1046] |  | 288 nM |  | 64 nM | 
36 | O=C(c1ccc2ccn(Cc3ccncc3)c2c1)N1CC(N2CCN(C(=O)c3nccs3)CC2)C1 [Cpd 1047] |  | 4630 nM |  | 471 nM | 
37 | O=C(c1ccc2c(ccn2Cc2cccnc2)c1)N1CC(N2CCN(C(=O)c3nccs3)CC2)C1 [Cpd 1048] |  | 695 nM |  | 146 nM | 
38 | O=C(c1ccc2c(cnn2CCc2ccc(F)cc2)c1)N1CC(N2CCN(C(=O)c3nccs3)CC2)C1 [Cpd 1049, 1-[2-(4-Fluorophenyl)ethyl]-5-({3-[4-(1,3-thiazol-2-ylcarbonyl)piperazin-1-yl]azetidin-1-yl}carbonyl)-1H-indazole] |  | 10 nM |  | 50 nM | 
39 | O=C(c1ccc2nn(CCc3ccc(F)cc3)cc2c1)N1CC(N2CCN(C(=O)c3nccs3)CC2)C1 [Cpd 1050, 2-[2-(4-Fluorophenyl)ethyl]-5-({3-[4-(1,3-thiazol-2-ylcarbonyl)piperazin-1-yl]azetidin-1-yl}carbonyl)-2H-indazole] |  | 24 nM |  | 85 nM | 
